Laboratory results taken from PubChem BioAssay AID1996.
Values after ≈ are worked out from the molar mass of the structure shown.

Conditions: buffer; pH 7.4; 200.0 µM

SMILES	solubility kinetic [µg/mL]
O=S(=O)(c1ccc(Cl)cc1)N1CCN(c2ccccn2)CC1	0.5 (≈ 1.48 µM)
Cc1cccc(C(=O)NCCCNC(=O)c2ccc(C)nc2)c1	44.1 (≈ 142 µM)
COc1ccccc1NC(=O)Nc1nc2ccc(S(N)(=O)=O)cc2s1	1.6 (≈ 4.23 µM)
CCOc1ccc(Nc2nc(NCC(=O)O)nc(N)c2[N+](=O)[O-])cc1	> 52.2
CC1(C)OC(=O)C(=NNc2ccccc2C(=O)O)C(=O)O1	> 43.8
CC1CCCCN1Cc1cccnc1.O=C(O)C(=O)O (stereo not given)	> 42
Cc1ccc2nc(SCC(=O)Nc3cc(C)on3)c(C)cc2c1	< 0.2
COc1cccc(Nc2nc(N)nc(CCl)n2)c1	> 39.9
CCOc1cccnc1Sc1ccccc1	27.7 (≈ 120 µM)
CCC(C)NC(=O)C1c2ccccc2Oc2ccccc21 (stereo not given)	1.9 (≈ 6.75 µM)
COc1cc(C(=S)N2CCCC2)ccc1OCC(N)=O	> 44.2
CC(C)n1c(=S)[nH]c2cc(C(F)(F)F)ccc21	9.1 (≈ 35 µM)
CC(C)NC(=O)c1ccc(CN2CCC(Cc3ccccc3)CC2)cc1	47.3 (≈ 135 µM)
S=c1[nH]ccn1-c1cccc(Cl)c1Cl	> 36.8
Cc1ccc(C)c(-c2csc(Nc3ncccn3)n2)c1	0.2 (≈ 0.708 µM)
CC(Sc1nccn1C)C(=O)Nc1ccc(C(N)=O)cc1 (stereo not given)	> 45.7
COC(=O)C(NC(C)=O)(Nc1cccc(C)n1)C(F)(F)F (stereo not given)	> 45.8
O=C(Nc1cccc(Cl)c1)C1=CC=CN2CCS(=O)(=O)N=C12	7.1 (≈ 21 µM)
COCc1cc(C)nc(SCc2ccc(Cl)cc2)c1C#N	0.8 (≈ 2.51 µM)
O=C(CN1C(=O)NC2(CCCCCC2)C1=O)NCc1ccccc1	> 49.4
O=C(Nc1nc(-c2cccnc2)cs1)c1ccc([N+](=O)[O-])cc1	3.2 (≈ 9.81 µM)
CCCN(C(=O)CSc1ncccn1)C1CCS(=O)(=O)C1 (stereo not given)	> 49.4
COc1ccc(NC2CC(=O)N(c3cccc([N+](=O)[O-])c3)C2=O)cc1 (stereo not given)	> 51.2
CNC(=O)c1cc(C(=O)c2ccc(F)cc2Cl)c[nH]1	14.1 (≈ 50.2 µM)

SMILES	solubility kinetic [µg/mL]
Cc1ccc2nc(SC(C)C(=O)N3CC(C)OC(C)C3)[nH]c2c1 (stereo not given)	49.4 (≈ 148 µM)
CC1C(=O)Nc2ccccc2N1C(=O)c1ccc(F)cc1F (stereo not given)	> 45.3
CSCC(=O)Nc1nc(-c2ccc3c(c2)OCCO3)cs1	5.2 (≈ 16.1 µM)
O=C(O)CSc1nc2ccccc2n1Cc1ccccc1	> 44.8
O=C(NCC(=O)N1CCc2ccccc2C1)c1ccccc1Cl	> 49.3
CN1C(=O)NC(=O)/C(=C/c2ccc([N+](=O)[O-])o2)C1=O	> 39.8
COc1ccc(Cl)cc1NC(=O)Cn1c(=O)oc2ccccc21	1.2 (≈ 3.61 µM)
CCOc1ccc(N(CC(=O)N2CCCCCC2)S(=O)(=O)c2ccc(C)cc2)cc1	23.6 (≈ 54.8 µM)
CN(c1ccccc1)S(=O)(=O)c1ccc(C(=O)NCc2ccccc2F)cc1	10.4 (≈ 26.1 µM)
Cc1nonc1OC(C)CNCCNc1ccc([N+](=O)[O-])cc1.Cl (stereo not given)	> 53.7
CC1CCCC(NC(=O)CSc2ncnc3ccccc23)C1C (stereo not given)	24.1 (≈ 73.1 µM)
COc1ccc(CCOC(=O)c2ccc(NC(=O)CC#N)cc2)cc1	4.1 (≈ 12.1 µM)
CC(=O)c1c(O)c2ccccc2n(C2CCCCC2)c1=O	1.4 (≈ 4.91 µM)
CCCCNC(=S)Nc1ccccc1Cc1ccccc1	32.5 (≈ 109 µM)
CCOc1ccc(S(=O)(=O)Nc2ccc(OC)nc2)cc1	> 46.3
Cc1ccc(C(=O)NCC(=O)NCCCc2ccccc2)s1	24.9 (≈ 78.7 µM)
CCOc1ccccc1NS(=O)(=O)c1cn(C)c(=O)n(C)c1=O	34.4 (≈ 101 µM)
COc1ccc(C(=O)O/N=C(\N)c2ccccc2)cc1OC	23.8 (≈ 79.3 µM)
CNC(=S)NC(CC(=O)OC)c1ccc2c(c1)OCO2 (stereo not given)	41.8 (≈ 141 µM)
CC(Nc1c[nH]c(=O)[nH]c1=O)c1ccccc1 (stereo not given)	22.3 (≈ 96.4 µM)
Cc1ccccc1C(=O)NC(=S)N(C)CCc1ccccn1	> 47
COc1cc(C(=O)COC(=O)c2ccc([N+](=O)[O-])o2)cc(OC)c1OC	> 54.8
CC1CN(S(=O)(=O)c2cc(C(=O)NCCCN3CCCC3=O)ccc2Cl)CC(C)O1 (stereo not given)	> 68.7
Cc1onc(-c2ccccc2)c1C(=O)N(Cc1ccccc1)C(C)C	> 50.2

SMILES	solubility kinetic [µg/mL]
CC(=O)Nc1ccc(NC(=O)c2cccc3ccccc23)cc1	1.7 (≈ 5.59 µM)
Cc1ccc(NS(=O)(=O)c2ccc3c(c2)CCC(=O)N3)cc1	> 47.5
O=C(O)c1cc(O)ccc1NC(=O)C1CCCO1 (stereo not given)	30.1 (≈ 120 µM)
O=C(Cc1cccc2ccccc12)Nc1cccnc1	39 (≈ 149 µM)
CS(=O)(=O)NCCCNc1ccc(C(F)(F)F)cc1[N+](=O)[O-]	> 51.2
CC(=O)c1cccc(NC(=O)CSc2nc(C3CC3)nc3ccccc23)c1	0.9 (≈ 2.38 µM)
Cc1ccc(Nc2nc(-c3cccnc3)nc3ccccc23)cc1	0.6 (≈ 1.92 µM)
CCOC(=O)C1=C(C)NC(C)=C(C(=O)OCC)C1C(=O)OCC(=O)N1CCOCC1	> 63.7
CC(C)c1ccc(C(N)=S)cc1	25.3 (≈ 141 µM)
COc1ccc(OCCNC(=O)/C=C/c2ccccc2)cc1	4.9 (≈ 16.5 µM)
Cc1ccc(S(=O)(=O)C(C#N)=C2N(C)c3ccccc3N2C)cc1	7.9 (≈ 23.3 µM)
CC#CC(=O)N1CCC(CO)(CCc2ccccc2)CC1	41.8 (≈ 146 µM)
Cc1cccc(N(Cc2cc(=O)[nH]c3ccccc23)C(=O)C(C)C)c1	36.3 (≈ 109 µM)
COc1ccc(Cl)cc1N1C(=O)CC(N2CCN(S(=O)(=O)c3ccccc3F)CC2)C1=O (stereo not given)	38.3 (≈ 79.5 µM)
Cc1sc2nc(COC(=O)c3c(F)cccc3F)[nH]c(=O)c2c1C	4.2 (≈ 12 µM)
Cl.O=c1cc[nH]c2c1ccc1c(=O)cc[nH]c12	34.6
Cc1ccccc1NC(=O)CCCN1C(=O)C2CC=CCC2C1=O (stereo not given)	> 49
Cc1ccc(NC(=O)CN(C)C(=O)C2COc3ccccc3O2)cc1 (stereo not given)	47.4 (≈ 139 µM)
O=C(O)Cc1ccc(-n2cccc2)cc1	> 30.2
CCOC(=O)c1cc(S(=O)(=O)N2CCC(C)CC2)cn1C	5.2 (≈ 16.5 µM)
CC1CCN(CC(=O)Nc2ccc(Cl)cc2[N+](=O)[O-])CC1	0.9 (≈ 2.89 µM)
O=C(OCC(=O)N1CCCCCC1)c1ccc(Cl)nc1	> 44.5
CCCCNc1c(N)n(CC(C)C)c(=O)[nH]c1=O	35.9 (≈ 141 µM)
NC(=S)Nc1cccc(F)c1	> 25.5

SMILES	solubility kinetic [µg/mL]
O=S(=O)(c1cccc2nsnc12)N1CCCCC1	> 42.5
COc1ccc(C(=O)N2CCN(c3ccccn3)CC2)cc1[N+](=O)[O-]	49.5 (≈ 145 µM)
COc1ccccc1C(=O)NC(CCSC)C(=O)Nc1ccc(C)c(S(=O)(=O)N2CCOCC2)c1 (stereo not given)	19.2 (≈ 36.8 µM)
O=C(CCl)N(C1CCCC1)C1CCS(=O)(=O)C1 (stereo not given)	> 42
Cc1ccccc1C(=O)N1CCN(c2ncccn2)CC1	> 42.4
Cl.O=c1cn[nH]c2ccccc12	> 27.4
Br.N=C(N)SCCc1cccc(CCSC(=N)N)c1	> 66.6
Cc1cc(-c2onc(C)c2C(=O)O)no1	> 31.2
COc1ccc(CN2CCN(C(=O)CC(C)C)CC2)cc1	36.8 (≈ 127 µM)
Cc1ccc(OC(C)C(=O)Nc2ncc(Cl)cc2Cl)c([N+](=O)[O-])n1 (stereo not given)	8.9 (≈ 24 µM)
CCn1c(SCC(=O)OC(C)C)nnc1-c1ccccc1OC	> 50.3
CCC1C(=O)Nc2ccccc2N1C(=O)COc1ccccc1 (stereo not given)	> 46.6
Cn1c(=O)oc2cc(S(=O)(=O)N3CCc4ccccc43)ccc21	0.5 (≈ 1.51 µM)
Cn1ccnc1C(=O)c1cccc(Br)c1	> 39.8
Cc1ccc(N2CCN(C(=O)NC3CCCCC3)CC2)c(C)c1	1.6 (≈ 5.07 µM)
Cc1ccc(C(=O)N2CCN(Cc3ccc4c(c3)OCO4)CC2)c(Cl)c1	54.4 (≈ 146 µM)
Cc1cccc(NC(=O)/C(C#N)=C/c2ccc(F)cc2)n1	1.5 (≈ 5.33 µM)
Cc1cccc(NC(=O)c2ccc3nccnc3c2)n1	> 39.6
Cc1ccc(-c2ccc(S(=O)(=O)Nc3cccnc3)cc2)cc1	0.5 (≈ 1.54 µM)
CC(=O)N/C(=C\c1ccc(Cl)cc1)C(=O)O	34.7 (≈ 145 µM)
N#CC1=C(S)N(c2ccc(F)cc2)C2(CCCCC2)NC1=O	> 47.6
Cc1ccccc1N1CCN(CC(=O)Nc2nccs2)CC1	44.2 (≈ 140 µM)
COc1ccc(OC)c(CN2CCCCCC2)c1.O=C(O)C(=O)O	48.2
O=C(c1ccccc1F)N1CCN=C1c1ccccc1	36.2 (≈ 135 µM)

SMILES	solubility kinetic [µg/mL]
O=S(=O)(c1ccc(Cl)cc1)N1CCN(CCc2ccncc2)CC1	18.3 (≈ 50 µM)
COc1ccccc1NC(=O)N1CCCC1C(=O)NCc1cccs1 (stereo not given)	> 53.9
Cc1ccc(NC(=O)c2cccnc2C(=O)O)nc1	> 38.6
CN(C)C(=O)C(OC(=O)c1ccc2ccccc2n1)c1ccccc1 (stereo not given)	> 50.2
COc1ccc2c(c1)CCC/C2=N/OC(=O)c1ccccc1OC	2.6 (≈ 7.99 µM)
O=C(CCC(=O)c1ccc(Cl)s1)Nc1ncccc1O	> 46.6
O=C(CSc1ncccn1)NC(=O)Cc1ccccc1	> 43.1
COCc1cc(=O)[nH]c(-c2ccc(C(F)(F)F)cc2)n1	> 42.6
COCC1CCN(Cc2nc(-c3ccc(OC)cc3)no2)CC1	41 (≈ 129 µM)
COC(=O)c1sc(SC)nc1N	30.4 (≈ 149 µM)
CC1(C)C2C(Cl)(Cl)C2(C)c2ccccc2N1C=O (stereo not given)	38.3 (≈ 135 µM)
Cc1cc(NC(=O)Cn2c(=O)oc3ccc(Cl)cc32)no1	1.5 (≈ 4.87 µM)
C=CCNC(=O)c1ccc2c(c1)N(CC)C(=O)c1ccccc1S2	> 50.8
COc1ccc(CNC(=O)c2c[nH]c3ccccc3c2=O)cc1	4.1 (≈ 13.3 µM)
Cc1ccc2nc(-c3ccc(O)cc3)oc2c1	1.7 (≈ 7.55 µM)
COc1ccc(NC(=O)[C@@H](NC(N)=O)C(C)C)cc1Cl	> 45
Cc1cccc(C(=O)NCC(=O)NC(C)CCc2ccccc2)c1 (stereo not given)	40.8 (≈ 126 µM)
CC(C)NC(=O)N1CCC(c2nc3ccccc3s2)CC1	> 45.5
CC1SCC(=NOCc2c(Cl)cccc2Cl)CS1 (stereo not given)	< 0.7
O=C(COC(=O)CCSc1ccc(F)cc1)NCc1ccc(F)cc1	26.5 (≈ 72.5 µM)
COc1ccc(C(=O)OCC(=O)N2CCc3ccccc3C2)cc1OC	> 53.3
O=C(Nc1ccc(F)cc1)C(=O)C1C(=O)Nc2ccccc21 (stereo not given)	> 44.7
O=C1/C(=C/c2cccc([N+](=O)[O-])c2)CSc2ccc(Cl)cc21	< 0.7
Cc1ccc(S(=O)(=O)CCC(=O)NC2CCCCC2)cc1	> 46.4
